Laboratory results reported in US20050209231A1, “Compositions and methods for inducing cardiomyogenesis” (priority 2004, published 2005).

Key:
[1] = Toxicity of the cardiogenols (Table 1); type: cell-based, murine; details: mouse, P19CL6 cells
[2] = tested on: P19CL6 cells; test: MHC expression by immunostaining (anti-MHC antibody MF20), secondary assay for differentiation; type: cell-based, murine; details: for Optimal Activity: % cells positive for MHC after 7 days; for EC50: Mus musculus, P19CL6, inducing MHC expression
Procedure: MHC is one of the essential motor proteins responsible for cardiac muscle contractibility and was used as a secondary assay for differentiation. […] The P19CL6 cell line is a subclone of P19 EC cells with higher potential for cardiomyogenesis. See Habara-Ohkubo, Cell Struct. Funct., 21:101-110 (1996). MHC expression was determined in P19CL6 cells by immunostaining cells with anti-MHC antibody (MF20) (FIG. 2F).
The optimal activities of the cardiogenols in Table 1 are indicated by a series of "+" signs, as follows: ++: 10-25% cells are positive for MHC after 7 days; +++: 25-40% cells are positive for MHC after 7 days; ++++: 40-55% cells are positive for MHC after 7 days.

[3] = tested on: R1 cells; test: Cellular toxicity and cell death in R1 cells; type: cell-based
[4] = tested on: R1 mouse ESCs; test: Differentiation of undifferentiated R1 ESCs in monolayer into cardiac muscle (immunostaining of MHC, GATA-4, MEF2, Nkx2.5; beating); type: cell-based
Procedure: FIG. 2. Immunostaining of cardiac muscle markers in ESCs (A to E) and P19CL6 cells (F) treated with 0.25 μM cardiogenol C: (A) and (F) Myosin Heavy Chain (green); (B) GATA-4 (red); (C) MEF2 (red); (D) Nkx2.5 (red); and (E) Myosin Heavy Chain (green) and MEF2 (red). Cell nuclei were stained with DAPI (blue). Cells were fixed with 4% paraformaldehyde (Sigma) for 20 min. Cell staining was performed in PBS (Gibco) with 0.3% Triton X-100 and 6% horse serum. Primary antibodies were used at the following dilutions: myosin heavy chain (MHC) mouse monoclonal antibody MF20 (Developmental Studies Hybridoma Bank, 1:200), rabbit polyclonal anti-GATA-4 antibody (Santa Cruz Biotech, 1:300), rabbit anti-MEF2 antibody (Santa Cruz Biotech, 1:100) and goat anti-Nkx2.5 antibody (Santa Cruz Biotech, 1:100). Secondary antibodies were Cy2-conjugated anti-mouse (1:300), or Cy3-conjugated anti-rabbit or anti-goat antibodies (Jackson ImmunoResearch, 1:500). Cell nuclei were stained with DAPI (Roche). Images were taken with a Nikon Eclipes TE2000 microscope with 200-fold magnification. Double or triple-labeled images were assembled in Metamorph.
To confirm that these compounds are general cardiomyogenesis inducing agents, their effects on undifferentiated R1 mouse ESCs were analyzed. R1 mouse ESCs can be maintained in a pluripotent state with the addition of leukemia inhibitory factor (LIF) in the culture medium. The embryonic stem cell line R1 was cultured in gelatin-coated tissue culture dishes with Knockout DMEM with 15% ES serum replacement, 1 mM L-glutamine (from Gibco), 1% nonessential amino acids stock, 1% nucleosides stock, 0.1 mM […] (from Specialty Media) and 1000 units/mL of leukemia inhibitory factor (LIF, from Chemicon).
For differentiation, R1 cells were plated in a monolayer (10000 cells/well) in gelatin-coated 384-well or 96-well plates with 100 μL of DMEM with 10% FBS and 0.25 μM of compounds. LIF was not present during differentiation. After 7 days in culture (3 days with compounds and then, after changing the medium without additional compound added, another 4 days), the presence of beating cardiac muscle was visualized under a microscope. In addition to the expression of MHC (FIG. 2A), the cardiac specific gene, GATA-4, was detected by immunofluorescent staining using anti-GATA4 antibody (FIG. 2B).
Cardiogenol C has a […] aniline substituting at the pyrimidine C2 position and is very potent with an EC50 of 0.1 μM for inducing the differentiation of MHC positive cardiomyocytes from ESCs. […] See Boheler et al., Circ. Res., 91:189-201 (2002). […] This is in contrast to the current standard method of inducing cardiomyogenesis of ESCs by aggregation and formation of EBs, which results in only 5% of the cell population forming cardiomyocytes. See Boheler et al., (2002).
To further characterize the activity of Cardiogenol C, the expression of the cardiac muscle cell specific transcription factors MEF2 and Nkx2.5 was examined (FIGS. 2C and D). Members of the MEF2 family are essential for muscle development. See, e.g., Edmondson, et al., Development, 1251-1263 (1994); Lin et al., Science, 276:1404-1407 (1997). Nkx2.5 together with GATA-4 regulates the expression of multiple cardiac muscle specific genes (e.g., myosin light chain 2V, atria natriuretic factor, eHAND and homeodomain transcription factor HOP). See, e.g., Small et al., Cell, 110:725-735 (2002); Shin et al., Cell, 110:725-35 (2002). Moreover, the targeted interruption of Nkx2.5 gene is embryonic lethal and results in arrest of cardiac development. See, e.g., Lyons et al., Genes Dev., 9:1654-66 (1995). Approximately 90% of cardiogenol C treated cells stain positive for MEF2 and Nkx2.5, further confirming that ESCs are differentiated into cardiac muscle by cardiogenol C.

[5] = R1 cells, 0.25 μM compound for 3 days, then 4 days in medium without compound

Structure (SMILES) | EC50 [1] [nM] | Optimal Activity [2] | EC50 [2] [nM] | concentration showing significant cellular toxicity [3] | treated cells stain positive for MEF2 ([4]; ESCs) | treated cells stain positive for Nkx2.5 ([4]; ESCs) | EC50 ([4]; Mus musculus, Cardiomyocyte, read-out: EC50 for inducing the differentiation of MHC positive cardiomyocytes from ESCs) [nM] | beating areas (functional cardiac muscle) ([4]; R1 cells treated with compound) | cells positive for GATA-4 [4, 5] | cells stained positive for MHC [4, 5]
OCCNc1ccnc(Nc2ccc(Nc3ccccc3)cc2)n1 [Cardiogenol A] | 5000 | ++ (10-25% cells are positive for MHC after 7 days) | 1000 | – | – | – | – | – | – | –
OCCNc1ccnc(Nc2ccc(Oc3ccccc3)cc2)n1 [Cardiogenol B] | 5000 | +++ (25-40% cells are positive for MHC after 7 days) | 500 | – | – | – | – | – | – | –
COc1ccc(Nc2nccc(NCCO)n2)cc1 [Cardiogenol C] | 25000 | ++++ (40-55% cells are positive for MHC after 7 days) | 100 | greater than 25 μM | Approximately 90% | Approximately 90% | 100 | many beating areas | more than 90% | more than 50%
OCCNc1ccnc(Nc2ccc(/C=C/c3ccccc3)cc2)n1 [Cardiogenol D] | 2500 | ++++ (40-55% cells are positive for MHC after 7 days) | 100 | – | – | – | – | – | – | –
